# From patent US20150315188A1, “COMPOUNDS AND METHODS FOR TREATMENT OF HYPERTENSION” (MEDIVATION TECHNOLOGIES, INC., priority 2012, published 2015)
# Key:
# Parameters in all cases: purchased Milipore (Millipore)
# [1] = molecular target: T1, Human adrenergic α2B receptor (Homo sapiens, UniProt P18089); experiment: Radioligand binding, adrenergic α2B (Protocol Group B); conditions: Protocol Group B; for Percentage inhibition of ligand binding, Adrenergic α2B (10 nM): 0.01 µM; for Percentage inhibition of ligand binding, Adrenergic α2B (30 nM): 0.03 µM
# T1 sequence (P18089 1-450): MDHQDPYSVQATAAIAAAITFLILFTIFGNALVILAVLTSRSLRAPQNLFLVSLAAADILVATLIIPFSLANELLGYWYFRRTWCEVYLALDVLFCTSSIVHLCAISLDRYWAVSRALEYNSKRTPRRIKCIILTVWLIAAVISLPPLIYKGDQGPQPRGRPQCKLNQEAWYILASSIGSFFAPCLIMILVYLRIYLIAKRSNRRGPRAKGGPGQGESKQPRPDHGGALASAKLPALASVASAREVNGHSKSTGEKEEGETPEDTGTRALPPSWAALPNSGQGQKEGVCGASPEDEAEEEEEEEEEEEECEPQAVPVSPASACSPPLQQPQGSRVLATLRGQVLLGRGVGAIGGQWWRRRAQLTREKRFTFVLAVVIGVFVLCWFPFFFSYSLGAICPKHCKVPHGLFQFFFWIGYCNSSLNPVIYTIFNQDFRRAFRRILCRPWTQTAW
# Procedure, shortened: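 Recombinant human α2B receptor membranes incubated with compounds in 50 mM Tris-HCl pH 7.4, 5 mM MgCl2, 1 mM CaCl2, 0.2% BSA, 1% DMSO vehicle. Non-specific binding defined with 10 μM rauwolscine. Values are percent inhibition of specific binding or estimated Ki.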
# [2] = molecular target: T2, Human adrenergic α2A receptor (Homo sapiens, UniProt P08913); experiment: Radioligand binding, adrenergic α2A (Protocol Group B); conditions: Protocol Group B; for Percentage inhibition of ligand binding, Adrenergic α2A (0.3 μM) / inhibition at 0.3 µM: 0.3 μM compound; for inhibition at 0.3 µM: read-out: Percentage inhibition of ligand binding, Adrenergic α2A (0.3 μM)
# T2 sequence (P08913 1-465): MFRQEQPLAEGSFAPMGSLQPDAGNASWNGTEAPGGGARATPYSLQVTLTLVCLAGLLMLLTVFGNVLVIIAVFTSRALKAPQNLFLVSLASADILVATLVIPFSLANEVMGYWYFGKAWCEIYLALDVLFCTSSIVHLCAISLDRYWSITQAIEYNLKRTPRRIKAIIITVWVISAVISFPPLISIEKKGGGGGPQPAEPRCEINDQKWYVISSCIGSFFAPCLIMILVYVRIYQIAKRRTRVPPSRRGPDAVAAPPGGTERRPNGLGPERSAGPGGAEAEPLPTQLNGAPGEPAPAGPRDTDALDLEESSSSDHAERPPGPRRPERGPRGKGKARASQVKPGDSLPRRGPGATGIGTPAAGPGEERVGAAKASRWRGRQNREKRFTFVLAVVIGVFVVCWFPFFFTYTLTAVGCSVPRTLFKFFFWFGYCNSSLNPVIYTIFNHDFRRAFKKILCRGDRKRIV
# Procedure, shortened: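 Membranes from recombinant cells expressing the receptor, in 50 mM Tris-HCl pH 7.4 with 5 mM MgCl2, 1 mM CaCl2, 0.2% BSA; compounds incubated with 2 nM [^3H]MK-912 for 60 min at 25° C. Nonspecific binding defined by 10 μM rauwolscine; filtration, counting; percent inhibition of specific binding, or estimated Ki.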
# [3] = molecular target: T3, Human adrenergic α1B receptor (Homo sapiens, UniProt P35368); experiment: Radioligand binding, adrenergic α1B (Protocol Group B); conditions: Protocol Group B
# T3 sequence (P35368 1-520): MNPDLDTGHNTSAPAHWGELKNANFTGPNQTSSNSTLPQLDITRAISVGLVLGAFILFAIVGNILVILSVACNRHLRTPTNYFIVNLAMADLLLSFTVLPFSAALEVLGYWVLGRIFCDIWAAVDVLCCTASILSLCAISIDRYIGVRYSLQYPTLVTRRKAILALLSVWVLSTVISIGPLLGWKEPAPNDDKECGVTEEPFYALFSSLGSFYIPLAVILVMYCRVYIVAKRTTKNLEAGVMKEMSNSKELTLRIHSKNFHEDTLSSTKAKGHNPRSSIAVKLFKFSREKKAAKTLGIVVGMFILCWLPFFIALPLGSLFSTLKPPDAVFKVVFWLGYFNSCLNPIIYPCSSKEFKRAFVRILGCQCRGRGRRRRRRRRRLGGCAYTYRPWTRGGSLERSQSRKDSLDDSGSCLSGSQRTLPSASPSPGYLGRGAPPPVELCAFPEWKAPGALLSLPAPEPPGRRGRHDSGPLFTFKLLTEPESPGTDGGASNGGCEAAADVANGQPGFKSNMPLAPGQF
# Procedure, shortened: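 Recombinant human α1B membranes incubated with test compound and 0.3 nM [3H]prazosin, 60 min at 25 °C, in 50 mM Tris-HCl pH 7.4, 10 mM MgCl2, 1 mM EDTA; nonspecific binding with 10 μM prazosin. Filter-bound radioactivity counted; values are % inhibition of specific binding or estimated Ki.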
SMILES,"Percentage inhibition of ligand binding, Adrenergic α2B (10 nM) ([1]; 10 nM compound)","Percentage inhibition of ligand binding, Adrenergic α2B (30 nM) ([1]; 30 nM compound)","Percentage inhibition of ligand binding, Adrenergic α2B (0.1 μM) ([1]; 0.1 μM compound)","Percentage inhibition of ligand binding, Adrenergic α2A (0.1 μM) ([2]; 0.1 μM compound)","Percentage inhibition of ligand binding, Adrenergic α2A (0.3 μM) [2]","Percentage inhibition of ligand binding, Adrenergic α1B (0.1 μM) ([3]; 0.1 μM compound)","Percentage inhibition of ligand binding, Adrenergic α1B (0.3 μM) ([3]; 0.3 μM compound)","inhibition at 0.01 µM ([1]; 10 nM compound, read-out: Percentage inhibition of ligand binding, Adrenergic α2B (10 nM))","inhibition at 0.1 µM ([2]; 0.1 μM compound, read-out: Percentage inhibition of ligand binding, Adrenergic α2A (0.1 μM))","inhibition at 0.1 µM ([1]; 0.1 μM compound, read-out: Percentage inhibition of ligand binding, Adrenergic α2B (0.1 μM))",inhibition at 0.3 µM [2],"inhibition at 0.3 µM ([3]; 0.3 μM compound, read-out: Percentage inhibition of ligand binding, Adrenergic α1B (0.3 μM))","inhibition at 0.03 µM ([1]; 30 nM compound, read-out: Percentage inhibition of ligand binding, Adrenergic α2B (30 nM))","inhibition at 0.1 µM ([3]; 0.1 μM compound, read-out: Percentage inhibition of ligand binding, Adrenergic α1B (0.1 μM))"
"Cc1cc(F)cc2c3c(n(CC(C)(O)c4cccnc4)c12)CC1CCCN1C3 (single isomer, unassigned) [76b]",11%,5%,20%,5%,0%,4%,3%,–,–,–,–,–,–,–
"Cc1cc(F)cc2c3c(n(CC(C)(O)c4cccnc4)c12)CC1CCCN1C3 (single isomer, unassigned) [76c]",−3%,−3%,–,19%,18%,19%,33%,–,–,–,–,–,–,–
"Cc1cc(F)cc2c3c(n(CC(C)(O)c4ccncc4)c12)CCN1CCCC31 (single isomer, unassigned) [77a]",–,30%,–,–,19%,7%,32%,12%,3%,–,–,–,–,–
"Cc1cc(F)cc2c3c(n(CC(C)(O)c4ccncc4)c12)CCN1CCCC31 (single isomer, unassigned) [77b]",6%,12%,–,5%,9%,−3%,14%,–,–,–,–,–,–,–
"Cc1cc(F)cc2c3c(n(CC(C)(O)c4ccncc4)c12)CC1CCCN1C3 (single isomer, unassigned) [78a]",−1%,−1%,5%,−11%,−7%,2%,12%,–,–,–,–,–,–,–
"Cc1cc(F)cc2c3c(n(CC(C)(O)c4ccncc4)c12)CC1CCCN1C3 (single isomer, unassigned) [78b]",0%,7%,22%,−7%,8%,2%,12%,–,–,–,–,–,–,–
"Cc1cc(F)cc2c3c(n(CC(C)(O)c4ccncc4)c12)CC1CCCN1C3 (single isomer, unassigned) [78c]",20%,33%,–,3%,−1%,−11%,−2%,–,–,–,–,–,–,–
"Cc1cc(F)cc2c3c(n(CC(C)(O)c4ccncc4)c12)CC1CCCN1C3 (single isomer, unassigned) [78d]",1%,−3%,–,2%,−4%,1%,7%,–,–,–,–,–,–,–
"Cc1cc(F)c2c(c1)c1c(n2CC(C)(O)c2cccnc2)CCN2CCCC12 (single isomer, unassigned) [79c]",−6%,7%,–,−3%,−1%,1%,6%,–,–,–,–,–,–,–

# The remaining lines, values ahead:
"Percentage inhibition of ligand binding, Adrenergic α2B (10 nM) ([1]; 10 nM compound)","Percentage inhibition of ligand binding, Adrenergic α2B (30 nM) ([1]; 30 nM compound)","Percentage inhibition of ligand binding, Adrenergic α2B (0.1 μM) ([1]; 0.1 μM compound)","Percentage inhibition of ligand binding, Adrenergic α2A (0.1 μM) ([2]; 0.1 μM compound)","Percentage inhibition of ligand binding, Adrenergic α2A (0.3 μM) [2]","Percentage inhibition of ligand binding, Adrenergic α1B (0.1 μM) ([3]; 0.1 μM compound)","Percentage inhibition of ligand binding, Adrenergic α1B (0.3 μM) ([3]; 0.3 μM compound)","inhibition at 0.01 µM ([1]; 10 nM compound, read-out: Percentage inhibition of ligand binding, Adrenergic α2B (10 nM))","inhibition at 0.1 µM ([2]; 0.1 μM compound, read-out: Percentage inhibition of ligand binding, Adrenergic α2A (0.1 μM))","inhibition at 0.1 µM ([1]; 0.1 μM compound, read-out: Percentage inhibition of ligand binding, Adrenergic α2B (0.1 μM))",inhibition at 0.3 µM [2],"inhibition at 0.3 µM ([3]; 0.3 μM compound, read-out: Percentage inhibition of ligand binding, Adrenergic α1B (0.3 μM))","inhibition at 0.03 µM ([1]; 30 nM compound, read-out: Percentage inhibition of ligand binding, Adrenergic α2B (30 nM))","inhibition at 0.1 µM ([3]; 0.1 μM compound, read-out: Percentage inhibition of ligand binding, Adrenergic α1B (0.1 μM))",SMILES
−7%,3%,–,−7%,5%,−4%,1%,–,–,–,–,–,–,–,"Cc1cc(F)c2c(c1)c1c(n2CC(C)(O)c2cccnc2)CCN2CCCC12 (single isomer, unassigned) [79d]"
−2%,0%,–,3%,–,2%,–,–,–,17%,8%,11%,–,–,"Cc1cc(F)c2c(c1)c1c(n2CC(C)(O)c2ccncc2)CCN2CCCC12 (single isomer, unassigned) [81c]"
−7%,8%,18%,11%,6%,5%,9%,–,–,–,–,–,–,–,"Cc1cc(F)c2c(c1)c1c(n2CC(C)(O)c2ccncc2)CCN2CCCC12 (single isomer, unassigned) [81d]"
−2%,–,–,−4%,–,–,30%,–,–,–,11%,–,23%,2%,"CC(O)(Cn1c2c(c3cc(Cl)cc(F)c31)CN1CCCC1C2)c1ccncc1 (single isomer, unassigned) [86a]"
14%,17%,–,11%,14%,3%,15%,–,–,–,–,–,–,–,"CC(O)(Cn1c2c(c3cc(Cl)cc(F)c31)CN1CCCC1C2)c1ccncc1 (single isomer, unassigned) [86b]"
